According to patent US4169197A, “6-Deoxyneamines aminoglycoside compounds” (The Upjohn Company, priority 1978, dated 1979):
In brackets after ≈: the same amount, converted by molar mass.

Key:
Format in all cases: cell-based
Ps. aeruginosa UC 95 [1] = experiment: standard disc plate assay, zones of inhibition; settings: Pseudomonas aeruginosa, UC95; 1 mg/ml; 12.5 mm paper discs; Table II; read-out: Zones of Inhibition
Description: (§1) The compounds of formulas (V, VII, IX, XI, XIV, XVI, and XIX) are active as antibacterials and can be used in various environments to erradicate or control susceptible microorganisms. Tables I and II set forth the in vitro antibacterial test results for representative compounds of the present invention. The results were obtained with a standard disc plate assay using 12.5 mm paper discs.

K. pneumoniae UC 57 = experiment: standard disc plate assay, zones of inhibition; settings: Klebsiella pneumoniae, UC57, 12.5 mm paper discs, Table II, read-out: Zones of Inhibition
Description: as §1

S. gallinarum UC 265 = experiment: standard disc plate assay, zones of inhibition; settings: Salmonella enterica, 12.5 mm paper discs, Table II, read-out: Zones of Inhibition
Description: as §1

S. schottmuelleri UC 126 [2] = experiment: standard disc plate assay, zones of inhibition; settings: 1 mg/ml; 12.5 mm paper discs; Table II
Description: as §1

S. aureus UC 80 = experiment: standard disc plate assay, zones of inhibition; settings: Staphylococcus aureus, UC80, 12.5 mm paper discs, Table II, read-out: Zones of Inhibition
Description: as §1

P. vulgaris UC 93 [3] = experiment: standard disc plate assay, zones of inhibition; settings: Proteus vulgaris, UC93; 1 mg/ml; 12.5 mm paper discs; Table II; read-out: Zones of Inhibition
Description: as §1

B. cereus UC 3145 = experiment: standard disc plate assay, zones of inhibition; settings: Bacillus cereus, UC3145; 1 mg/ml; 12.5 mm paper discs; Table II; read-out: Zones of Inhibition
Description: as §1

B. subtilis UC 564 = experiment: standard disc plate assay, zones of inhibition; settings: Bacillus subtilis, UC564, 12.5 mm paper discs, Table II, read-out: Zones of Inhibition
Description: as §1

S. lutea UC 130 = experiment: standard disc plate assay, zones of inhibition; settings: Micrococcus luteus, UC130; 1 mg/ml; 12.5 mm paper discs; Table II; read-out: Zones of Inhibition
Description: as §1

E. coli UC 51 = experiment: standard disc plate assay, zones of inhibition; settings: Escherichia coli, UC51, 12.5 mm paper discs, Table II, read-out: Zones of Inhibition
Description: as §1

S. typhi UC 215 = experiment: standard microplate test in BHI Agar; settings: Salmonella enterica, 20 h, read-out: Minimum Inhibitory Concentration
Protocol: (§2) The compounds VII, XI, XVβ, XVα and XVI were tested in a standard microplate test in BHI (Brain Heart Infusion) Agar at a concentration of 1 mg./ml. and dilutions thereof at 37° incubation temperature. The end points are read out 20 hours. BHI Agar is supplied by Difco Laboratories, Detroit, Mich.

Ps. aeruginosa UC 95 [4] = experiment: standard microplate test in BHI Agar; settings: Pseudomonas aeruginosa, UC95, 20 h, read-out: Minimum Inhibitory Concentration
Protocol: as §2

S. marcescens UC 131 = experiment: standard microplate test in BHI Agar; settings: Serratia marcescens, UC131, 20 h, read-out: Minimum Inhibitory Concentration
Protocol: as §2

S. schottmuelleri UC 126 [5] = experiment: standard microplate test in BHI Agar; settings: 37°, 20 hours, Table III, read-out: Minimum Inhibitory Concentration
Protocol: as §2

P. vulgaris UC 93 [6] = experiment: standard microplate test in BHI Agar; settings: Proteus vulgaris, UC93, 20 h, read-out: Minimum Inhibitory Concentration
Protocol: as §2

P. rettgeri UC 339 = experiment: standard microplate test in BHI Agar; settings: Providencia rettgeri, UC339, 20 h, read-out: Minimum Inhibitory Concentration
Protocol: as §2

K. pneumoniae UC 58 = experiment: standard microplate test in BHI Agar; settings: Klebsiella pneumoniae, UC58, 20 h, read-out: Minimum Inhibitory Concentration
Protocol: as §2

S. pneumoniae I UC 41 = experiment: standard microplate test in BHI Agar; settings: Streptococcus pneumoniae, UC41, 20 h, read-out: Minimum Inhibitory Concentration
Protocol: as §2

E. coli UC 45 = experiment: standard microplate test in BHI Agar; settings: Escherichia coli, UC45, 37°, 20 hours, Table III, read-out: Minimum Inhibitory Concentration
Protocol: as §2

P. mirabilis UC 6671 = experiment: standard microplate test in BHI Agar; settings: Proteus mirabilis, UC6671, 20 h, read-out: Minimum Inhibitory Concentration
Protocol: as §2

S. faecalis UC 694 = experiment: standard microplate test in BHI Agar; settings: Enterococcus faecalis, UC694, 20 h, read-out: Minimum Inhibitory Concentration
Protocol: as §2

P. morganii UC 3186 = experiment: standard microplate test in BHI Agar; settings: Morganella morganii, UC3186, 20 h, read-out: Minimum Inhibitory Concentration
Protocol: as §2

S. aureus UC 76 = experiment: standard microplate test in BHI Agar; settings: Staphylococcus aureus, UC76, 20 h, read-out: Minimum Inhibitory Concentration
Protocol: as §2

S. flexneri UC 143 = experiment: standard microplate test in BHI Agar; settings: Shigella flexneri, UC143, 37°, 20 hours, Table III, read-out: Minimum Inhibitory Concentration
Protocol: as §2

S. pyogenes UC 152 = experiment: standard microplate test in BHI Agar; settings: Streptococcus pyogenes, UC152, 20 h, read-out: Minimum Inhibitory Concentration
Protocol: as §2

`C[C@@]1(O)C[C@H](N)C[C@H](N)[C@H]1O[C@H]1O[C@H](CN)[C@@H](O)[C@H](O)[C@H]1N` [6-deoxy-5-methylneamine (VII), 6-deoxy-5-methyl-neamine] showed a zone of inhibition at 1000 µg/mL (Ps. aeruginosa UC 95 [1]) of 15 mm, a zone of inhibition at 100 µg/mL (K. pneumoniae UC 57; 0.1 mg/ml) of 22 mm and a zone of inhibition at 1000 µg/mL (K. pneumoniae UC 57; 1 mg/ml) of 29 mm. For the same molecule, the zone of inhibition at 100 µg/mL (S. gallinarum UC 265; 0.1 mg/ml) was 18 mm, the zone of inhibition at 1000 µg/mL (S. gallinarum UC 265; 1 mg/ml) was 28 mm and the zone of inhibition at 1000 µg/mL (S. schottmuelleri UC 126 [2]) was 21 mm. The zone of inhibition at 100 µg/mL (S. aureus UC 80; 0.1 mg/ml) was 18 mm, the zone of inhibition at 1000 µg/mL (S. aureus UC 80; 1 mg/ml) was 25 mm and the zone of inhibition at 1000 µg/mL (P. vulgaris UC 93 [3]) was 24 mm. For the same molecule, the zone of inhibition at 1000 µg/mL (B. cereus UC 3145) was 23 mm, the zone of inhibition at 100 µg/mL (B. subtilis UC 564; 0.1 mg/ml) was 26 mm and the zone of inhibition at 1000 µg/mL (B. subtilis UC 564; 1 mg/ml) was 37 mm. The zone of inhibition at 1000 µg/mL (S. lutea UC 130) was 15 mm, the zone of inhibition at 100 µg/mL (E. coli UC 51; 0.1 mg/ml) was 16 mm and the zone of inhibition at 1000 µg/mL (E. coli UC 51; 1 mg/ml) was 24 mm. The MIC (S. typhi UC 215) was 62.5 µg/mL (≈ 195 µM), the MIC (Ps. aeruginosa UC 95 [4]) was greater than 500 µg/mL and the MIC (S. marcescens UC 131) was 125 µg/mL (≈ 390 µM). For the same molecule, the MIC (S. schottmuelleri UC 126 [5]) was 62.5 µg/mL (≈ 195 µM), the MIC (P. vulgaris UC 93 [6]) was 62.5 µg/mL (≈ 195 µM) and the MIC (P. rettgeri UC 339) was greater than 500 µg/mL. The MIC (K. pneumoniae UC 58) was 15.6 µg/mL (≈ 48.7 µM), the MIC (S. pneumoniae I UC 41) was 62.5 µg/mL (≈ 195 µM) and the MIC (E. coli UC 45) was 125 µg/mL (≈ 390 µM). It also gave an MIC (P. mirabilis UC 6671) of 250 µg/mL (≈ 780 µM), an MIC (S. faecalis UC 694) greater than 500 µg/mL and an MIC (P. morganii UC 3186) of 125 µg/mL (≈ 390 µM). For the same molecule, the MIC (S. aureus UC 76) was 15.6 µg/mL (≈ 48.7 µM), the MIC (S. flexneri UC 143) was 125 µg/mL (≈ 390 µM) and the MIC (S. pyogenes UC 152) was 7.8 µg/mL (≈ 24.3 µM).
